Measurements reported in US20090203646A1, “USE OF SODIUM NARCISTATIN FOR REDUCING INTERNAL ADHESIONS AND FIBROSIS” (Sun Health Research Institute, priority 2008, published 2009).
“Also recorded” adds a separate entry of the source.

How the values were obtained:
[1] = test system: intraperitoneal adhesion formation; details: after surgery; cited from earlier work
[2] = test system: tumor growth; details: cited from earlier work
[3] = test system: Encephalitozoan intestinalis; details: cited from earlier work
[4] = test system: Japanese encephalitis; details: flavivvirus infection; cited from earlier work
[5] = test system: arthritic rats; assay: Tolerability of the drug in arthritic rats; type: in vivo, Lewis rats
From the text: While there is variability in the severity of disease development between the batches of adjuvant, there is very little within batch variability. All animals in each experiment were challenged with the same preparation of adjuvant. All animals in this experiment that received CFA developed arthritis from this adjuvant preparation. The arthritis disease pathology that developed in both experiments was the same in onset and severity.

[6] = test system: Spleen cells treated with the B-cell dependent mitogen, LPS; assay: Cytokine production by spleen cells treated with LPS (ELISA); type: cell-based, Lewis rats; details: 1 or 10 μg/ml, 24 h
Description: (§1) Immune Cell Cytokine Profile Assessment: A second experiment was completed to determined whether the adhesion reducing action of sodium narcistatin could be due to altering immune cell pro-inflammatory cytokine profiles known to […] adhesion formation. Spleen cells were cultured from young adult Lewis rats and treated in vitro with either Con A or LPS, T or B cell mitogen, respectively. Cultures with and without Con A or LPS were then treated with sodium narcistatin (0, 1, or 10 μg/ml). Cultures were incubated for 24 h at 37° C. After 24 h, supernatants were collected and cytokines were assessed using cytokine specific ELISA assays.
Cell Culture: Spleens were aseptically removed into Hank's balanced salt solution (HBSS). […]
Cultures for Cytokine Analysis: The prepared cells were counted using a hemocytometer, then brought to the concentration of 2×10^6 cells/ml. […]
(§2) After color development the plates were stopped with addition of 1N sulfuric acid. Unknown sample cytokine levels were determined through comparison with a standard curve present on each plate using an ELISA reader (Ceres 900 HDI: Bio Tek Instruments Incorporated: Winooski, Vt.). The concentrations were averaged for each treatment group at each time point, expressed as mean±SEM in ng/ml, and subjected to a one-way ANOVA (p<0.05) with Bonferroni post-hoc testing.

[7] = test system: splenic adhesions in the peritoneal cavity of rats with inflammatory arthritis; assay: Adhesion formation in rats with CFA-induced inflammatory arthritis (gross observation and adhesion scoring)
[8] = test system: Rat fibroblast cells; assay: Fibroblast proliferation, tritiated thymidine assay; type: cell-based
Description: Fibroblast Proliferation Assessment: A third experiment was completed to determined whether the adhesion reducing action of sodium narcistatin could be due to direct effects of sodium narcistatin to prevent fibroblast proliferation.
Proliferation of rat fibroblasts were assessed using standard tritiated thymidine assays as follows. Rat fibroblast cells were cultured in the presence of narcistatin in concentrations ranging from 0 to 1 mg/ml. The assay was completed in triplicate. Cells were pulsed at 24 h with 0.5 μCi 3H-Thymidine/well and incubated for 48 h at 37° C. At 48 h plates were pulled from the incubator and cells were harvested using a Brandel Cell Harvester. Filters with collected cells were washed 12× with 200 μl of ice cold distilled water). Fiberglass filers containing cells were placed into scintillation vials with 4 ml of ScintSafe Econo2 scintillation fluid. Radioactivity measured using a scintillation counter

[9] = test system: Spleen cells treated with the T-cell dependent mitogen, Con A; assay: Cytokine production by spleen cells treated with Con A (ELISA); type: cell-based, Lewis rats
Description: as §1
Cell Culture: Spleens were aseptically removed into Hank's balanced salt solution (HBSS). The spleens were placed in a stomacher bag and homogenized for 30 seconds. Spleen cells were triturated with a 10 ml pipette then washed with an additional 10 ml of HBSS and passed through a nylon mesh (Marsh Industries) to remove the extraneous connective tissue. The collected cells were centrifuged and resuspended in 5 ml of a NH4Cl hypotonic buffer for 3 min to lyse the red blood cells. The cells were washed 2× with 10 ml HBSS, centrifuged and resuspended into complete RPMI 1640 media supplemented with 5% fetal calf serum and 1% antibiotic/antimycotic.
Cultures for Cytokine Analysis: The prepared cells were counted using a hemocytometer, then brought to the concentration of 2×10^6 cells/ml. Two ml of the cell preparation were plated into 24 well plates (Falcon: Oxnard, Calif.), in the absence or presence of mitogen and in placed in an incubator 7% CO2, 37° C., for 24 h. After 24 h the culture supernatants were harvested and placed in the freezer at −70° C. until ELISA assay.
Cytokine Production: Duo sets for the detection of IL-1, IL-2, IL-4, IL-10, IFN-γ and TNF-α were obtained from R & D Systems and sandwich ELISAs were used to measure the amount cytokine released into the culture media. High binding microtiter 96-well plates were pre-coated with 100 μl of capture antibody in coating buffer for IL-1, IL-2, IL-4, IL-10, IFN-γ and TNF-α (0.15 M phosphate buffer, pH 7.4). The plates were sealed with plate film (Denville Scientific: South Plainfield, N.J.) and placed at 4° C. overnight. […]
as §2

For `O=C(c1ccccc1)c1ccc2n1CCC2C(=O)O` (centres unmarked) [Ketorolac, reference compound], the adhesion formation/reformation [1] is listed as “reduces adhesion formation”.

In the case of `O=C1N[C@@H]2C(=C[C@H](O)[C@@H](O)[C@H]2O)c2cc3c(c(O)c21)OCO3` [Narciclasine, narciclasine], the anticancer properties [2] is listed as “anticancer properties”.

In the case of `O=C1N[C@H]2[C@H](O)[C@H](O)[C@@H](O)[C@H](O)[C@@H]2c2cc3c(c(O)c21)OCO3` [Pancratastatin], the “potency in inhibiting tumor growth” value ([2]; relative to sodium narcistatin) is given as “more potent than sodium narcistatin”, the “activity against the parasite” value [3] is given as “activity” and the survival rate [4] is given as “up to 100%”.

For `O=C1N[C@@H]2C(=C[C@H](O)[C@H]3OP(=O)(O)O[C@H]32)c2cc3c(c(O)c21)OCO3` [sodium narcistatin], the tolerability ([5]; arthritic animals, 4.5 mg/Kg) was “tolerate the drug well”, the “body weights, grooming, feeding and drinking behavior” value ([5]; vehicle- versus narcistatin-treated arthritic rats) was “no differences” and the “production of IL-1 (IL-1β)” value [6] was “reduced”. For the same molecule, the “production of TNF-α” value [6] was “reduced”, the “number of adhesions in the thoracic and abdominal cavities” value ([7]; arthritic animals, compared to untreated or vehicle-treated arthritic animals) was “dramatically reduced” and the “splenic adhesion development in peritoneal cavity (FIG. 2)” value ([7]; arthritic rats, 4.5 mg/Kg intraperitoneal, day 10 to day 28 post-immunization) was “little to no adhesions”. The “formation of dense fibrous connective tissue covering over the spleen and pancreas (adhesion scoring, FIG. 3)” value ([7]; arthritic rats, 4.5 mg/Kg intraperitoneal, blinded subjective scoring) was “largely prevented”, the “inhibition of fibroblast proliferation in vitro (FIG. 6)” value ([8]; 0 to 1 mg/ml) was “potent inhibitor; also recorded: dose dependent” and the “reduction of fibroblast proliferation” value ([8]; at 0.001 mg/ml) was 50%. For the same molecule, the “fibroblast proliferation reduced to” value ([8]; at 0.01 mg/ml) was about 0%, the “production of IFN-γ” value ([9]; 1 or 10 μg/ml, 24 h) was “reduced” and the “production of IL-1” value ([9]; 1 or 10 μg/ml, 24 h) was “reduced”. For the same molecule, the “production of IL-2” value ([9]; 1 or 10 μg/ml, 24 h) was “reduced” and the “production of Con-A induced IFN-α” value ([9]; summary sentence b104) was “reduced”.

B1: IL-10: anti-inflammatory cytokine (protein, UniProt P22301 19-178, looked up)
Interleukin-10: SPGQGTQSENSCTHFPGNLPNMLRDLRDAFSRVKTFFQMKDQLDNLLLKESLLEDFKGYLGCQALSEMIQFYLEEVMPQAENQDPDIKAHVNSLGENLKTLRLRLRRCHRFLPCENKSKAVEQVKNAFNKLQEKGIYKAMSEFDIFINYIEAYMTMKIRN
In the case of B1, the adhesion formation/reformation [1] is given as “reduces adhesions; also recorded: limited”.
